Key:
human S1P3 = human S1P3 (Homo sapiens, UniProt Q99500); assay: Internalization effect experiment of S1P3 (CHO-S cells); type: cell-based
Description: CHO—S cells bearing human S1P1 with Myc tag were harvested and then adjusted to a density of one million cells per mL by Dulbecco's modified Eagle's medium (DMEM). […] After incubation, the mixture was centrifuged at 800 RPM for 5 minutes to obtain the cells. The cells were resuspended in FACS buffer (PBS containing 1% BSA), and Myc antibody labelled with fluorescein isothiocyanate (FITC) (from Californian Miltenyi Biotec GmbH, USA) was added in and incubated for 1 hour on ice. The cells were washed, resuspended in pre-cooled FACS buffer and analysed by FACS Calibur flow cytometry.
CHO—S cells expressing human S1P3 were used to perform internalization detection test. Besides cells, experimental method was the same with the method of the internalized detection experiment of S1P1.

[1] = system: heart rate and QT interval; assay: Telemetry assay of cardiovascular function in conscious beagle dog; type: in vivo; settings: within 24 hours after administration
Description: To determine whether Compound 2 has an effect on heart rate and QT interval, the compound was evaluated in a telemetry assay in conscious beagle dog.
An appropriate amount of CMC-Na was prepared as a 0.5% CMC-Na (w/v) solution with sterilized water for injection. The solution was prepared one day before administration.
Solutions of Compound 2 (samples) with the concentration of 2, 6 and 20 mg/mL were prepared one day before administration as follows. An appropriate amount of Compound 2 was added into an appropriate amount of 0.5% CMC-Na solution. The obtained mixture was emulsified and homogenized on an emulsification isotropic machine. Theoretical concentrations of Compound 2 in the prepared sample solutions were 2, 6 and 20 mg/mL.
A total of 8 animals and a Double Latin squared experimental design were used in this experiment. Administration cycles were separated by 3-5 days. One day before each administration cycle, the animals were weighted and fasted overnight. On the day of administration, telemetry system (Implantable physiological signal telemetry system 1, Data Science International Inc., USA) was turned on, test parameters were set, implants were activated and physiological indexes of the animals were recorded. […] Parameters would be analyzed using artificial set after the collection was completed. The data was, firstly, analyzed by PONEMAH Version 4.8 software automatically, and then checked point by point artificially for selected values. […] Time at which values were selected were recorded.
Statistical software SPSS13.0 was used to process data in this experiment. […] Indexes of blood pressure, electrocardiogram, respiration and body temperature were expressed as “mean±standard error”, and then analyzed according to following procedure: firstly, homogeneity test was performed on the data by use of Levene Test, and if the data was uniform ([…]), single-factor variance analysis was performed; and if the result of variance analysis was significant (P≤0.05), Dunnett's multiple comparison was performed on difference between vehicle group and sample group. […]

[2] = system: lymphocytes in the peripheral blood; assay: Effect on the number of lymphocytes in the peripheral blood; type: in vivo, Sprague-Dawley (SD) rats; settings: oral, SD rats
Excerpt: S1P1, which is expressed on the surface of lymphocytes, is essential for lymphocytes to leave the secondary lymphoid tissue and then enter into the peripheral circulation. Small molecule agonists of S1P1 can activate the receptor and result in an internalization effect on the receptor. This mechanism is a currently known mechanism by which lymphocytes are prevented from leaving the secondary lymphoid tissue, then resulting in an decreased number of lymphocytes in the peripheral circulation. In order to determine whether the compounds provided by present invention can reduce the number of lymphocytes in the peripheral blood, an in vivo effect experiment on lymphocytes is performed.
An appropriate amount of compound 2 was prepared as a suspension with sodium carboxymethylcellulose (CMC-Na) and was given orally to three Sprague-Dawley (SD) rats. Blood samples (0.5 ml) were collected at 30 min before the administration and at different time points after the administration (the collected blood samples were placed in EP tubes containing an appropriate amount of EDTA-2K solution), and analyzed on ADVIA2120 blood cell analyzer directly.

Sequence of human S1P3 (Q99500 whole entry): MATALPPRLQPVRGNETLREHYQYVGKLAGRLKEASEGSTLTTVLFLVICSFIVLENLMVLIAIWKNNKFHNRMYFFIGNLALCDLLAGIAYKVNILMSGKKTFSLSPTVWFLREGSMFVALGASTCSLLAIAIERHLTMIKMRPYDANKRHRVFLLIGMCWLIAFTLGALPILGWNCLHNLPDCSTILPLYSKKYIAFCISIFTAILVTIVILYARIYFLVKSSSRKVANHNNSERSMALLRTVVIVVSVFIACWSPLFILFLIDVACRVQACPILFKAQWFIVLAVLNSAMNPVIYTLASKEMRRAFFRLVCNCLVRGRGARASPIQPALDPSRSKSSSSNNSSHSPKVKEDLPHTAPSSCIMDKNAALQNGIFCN

EC50 (human S1P3; CHO-S cells expressing human S1P3, read-out: Receptor Internalization (EC50) S1P3): > 1000 nM
Compound: CC(C)Cc1ccc(-c2nc(-c3ccc(CN4CC(C(=O)O)C4)c(F)c3)no2)cc1 [Compound 2, 1-{2-fluoro-4-[5-(4-isobutylphenyl)-1,2,4-oxadiazol-3-yl]-benzyl}-3-azetidine carboxylic acid]
internalization activation effect on S1P3 subtype (human S1P3; CHO-S cells expressing human S1P3, in words): no internalization activation effect on S1P3 subtype
QT interval versus vehicle [1]: no significant difference
QTcF interval versus vehicle [1]: no significant difference
heart rate versus vehicle [1]: no significant difference
number of peripheral mononuclear cells and other leukocytes ([2]; in words): unobviously
reduction of lymphocytes in the peripheral blood ([2]; dose of 0.01 mg/kg): more than 50%
reduction of lymphocytes in the peripheral blood ([2]; dose of 1 mg/kg, in words): the most reduction
number of lymphocytes in the peripheral blood ([2]; three doses, 30 to 480 minutes after administration, in words): reduced the number of lymphocytes in the peripheral blood effectively

Reference: US10280158B2, “Immune adjustment compound, use thereof and pharmaceutical composition comprising same” (SUZHOU CONNECT BIOPHARMACEUTICALS, LTD., priority 2013, dated 2019)
